# Patent US9730448B2, “Tetrazolinone compound and use of same” (Sumitomo Chemical Company, Limited, priority 2013, dated 2017)
# Test system: cucumber powdery mildew fungus (Sphaerotheca fuliginea, a QoI-resistant strain, cytochrome b position 143 glycine to alanine)
# Assay: Test Example 6 and Comparative Test Example: control of cucumber powdery mildew (QoI-resistant strain), foliar spray on cucumber
# Format: in vivo
# Conditions: 500 ppm water dilution sprayed on cucumber (SAGAMI HANJIRO); inoculated after air-drying; investigated after 8 days in greenhouse
structure (smiles),measurement,value
"Cc1cc(-c2cccs2)ccc1OCc1ccccc1-n1nnn(C)c1=O [1-{[2-[2-methyl-4-(thiophen-2-yl)phenoxy]methyl]phenyl}-4-methyl-1,4-dihydrotetrazol-5-one]",area of lesion spots on the treated plant relative to that on an untreated plant,≥ 70%
